Test results published in patent publication US20090227619A1, “Harmine derivatives, intermediates used in their preparations, preparation processes and use therefo” (priority 2003, published 2009).
Read-outs that look alike come from different tables or passages of the source.

Tests used:
Lewis lung cancer = conditions: Lewis lung cancer; for Body weight of the animals, end, First time / Body weight of the animals, end, Second time: ip × 10qd; for Inhibition rate (%) Lewis cancer: comparison table 43, in vivo;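 for all read-outs here: mice implanted subcutaneously in the axilla with Lewis lung tumor cells, treated starting the following day, killed roughly three weeks after implantation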
NIH3T3 = experiment: In vitro cytotoxicity, IC50 by MTT method, NIH3T3; format: cell-based; conditions: Mus musculus; NIH3T3 cell strain; read-out: IC50 NIH3T3
Summary of the method: (§1)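 Cells in RPMI1640 with 10% FBS at 37° C, 5% CO2 were seeded at 10^5/ml and exposed to a compound concentration gradient for 48 h, at least three replicates, solvent controls.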

Hela = experiment: In vitro cytotoxicity, IC50 by MTT method, Hela; format: cell-based; conditions: Homo sapiens; Hela cell strain; read-out: IC50 Hela
Summary of the method: as §1

BGC-823 = experiment: In vitro cytotoxicity, IC50 by MTT method, BGC-823; format: cell-based; conditions: Homo sapiens, BGC-823; BGC823 cell strain; read-out: IC50 BGC823
Summary of the method: as §1

in vivo = conditions: both, Kunming, mouse, ip
Protocol: (§2) Five grades of dosages for each sample according to the results of the preliminary test, each dosage being 0.8 larger than the previous one
(§3) During the experiment, each sample was added a small amount of Tween-80 to facilitate dissolution after the sample was weighed, and then 0.5% CMC-Na solution was gradually added to achieve the desired concentration. The experimental volume was 0.5 ml/20 g mouse.
(§4) Single injection via intraperitoneal (i.p.) to different groups mice.
(§5) Kunming mice were divided into different groups randomly according to their sex. The medicament was intraperitoneally administered to each group of mice according to the dosage setting. After the administration of the medicaments, mice were observed continuously for the first 2 h for any gross behavioral changes and deaths. Dead animals were dissected and examined for any possible organ damage. […] Conditions of animals died within two week were recorded. After two weeks, all survived animals were sacrificed and checked macroscopically for possible damage to the heart, liver, kidneys and so on. Viscera that had substantive pathological changes were pathologically examined.

HepG2 = experiment: In vitro cytotoxicity, IC50 by MTT method, HepG2; format: cell-based, human; conditions: Homo sapiens; HepG2 cell strain; read-out: IC50 HepG2
Summary of the method: as §1

PLA-801 = experiment: In vitro cytotoxicity, IC50 by MTT method, PLA-801; format: cell-based; conditions: PLA-801 cell strain; read-out: IC50 PLA-801
Summary of the method: as §1

Lovo = experiment: In vitro cytotoxicity, IC50 by MTT method, Lovo; format: cell-based; conditions: Homo sapiens; Lovo cell strain; read-out: IC50 Lovo
Summary of the method: as §1

Kunming mice = conditions: for Death rate: single i.p.
Protocol: as §2, §3, §4, §5

S180 sarcoma = conditions: S180 sarcoma; for Body weight of the animals, beginning, First time / Body weight of the animals, end, First time / Inhibition rate, First time / Weight of the tumor X ± SD, First time / Body weight of the animals, beginning, Second time / Body weight of the animals, end, Second time / Inhibition rate, Second time: ip × 10qd; for Inhibition rate (%) S180 sarcomata: comparison table 43, in vivo
CT-DNA = experiment: DNA thermal denaturation, determination of ΔTm; format: binding; conditions: 20 uM compound, Tm of CT-DNA alone 61° C.
Summary of the method: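 CT-DNA at 15 ug/ml in PE buffer (1 mM Na2HPO4, 0.1 mM EDTA, pH 7.6), heated at 0.5° C./min from 25 to 95° C. Tm taken as hyperchromic transition mid-point; ΔTm = Tm of drug-DNA complex minus Tm of DNA alone, mean of three runs.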

Bel-7402 = experiment: In vitro cytotoxicity, IC50 by MTT method, Bel-7402; format: cell-based; conditions: Homo sapiens, Bel-7402; Bel7402 cell strain; read-out: IC50 Bel7402
Summary of the method: as §1

[1] = 50% male 50% female mice, 240 mg/kg
[2] = 50% male 50% female mice, 300 mg/kg
[3] = CT-DNA 15 ug/ml, PE buffer pH 7.6
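Throughout, for Death rate: acute toxicity in Kunming mice grouped by sex, one intraperitoneal dose at five graded levels in Tween-80 plus 0.5% CMC-Na, deaths monitored over two weeks.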
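Throughout, for LD50: acute toxicity in Kunming mice grouped by sex, one intraperitoneal dose at five graded levels in Tween-80 plus 0.5% CMC-Na, deaths monitored over two weeks.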
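Throughout, for MTD: acute toxicity in Kunming mice grouped by sex, one intraperitoneal dose at five graded levels in Tween-80 plus 0.5% CMC-Na, deaths monitored over two weeks.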
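Throughout, for Sex: acute toxicity in Kunming mice grouped by sex, one intraperitoneal dose at five graded levels in Tween-80 plus 0.5% CMC-Na, deaths monitored over two weeks.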

SMILES: OCc1cc2c3ccccc3n(Cc3ccccc3)c2cn1 [Compound 42, 9-benzyl-3-hydroxymethyl-β-carboline]
- Body weight of the animals, end, First time (Lewis lung cancer; Dosage 50 (mg/ml)): 24.7 g
- Body weight of the animals, end, Second time (Lewis lung cancer; Dosage 50 (mg/ml)): 24.7 g
- Body weight of the animals, beginning, First time (Lewis lung cancer; Dosage 50, ip × 10qd): 20.0 g
- Inhibition rate, First time (Lewis lung cancer; Dosage 50, ip × 10qd): 22.22%
- Weight of the tumor X ± SD, First time (Lewis lung cancer; Dosage 50, ip × 10qd): 2.14 ± 0.26 g
- Body weight of the animals, beginning, Second time (Lewis lung cancer; Dosage 50, ip × 10qd): 19.1 g
- Inhibition rate, Second time (Lewis lung cancer; Dosage 50, ip × 10qd): 26.96%
- Weight of the tumor X ± SD, Second time (Lewis lung cancer; Dosage 50, ip × 10qd): 1.89 ± 0.14 g
- Body weight of the animals, end, First time (Lewis lung cancer; Dosage 100 (mg/ml)): 25.1 g
- Body weight of the animals, end, Second time (Lewis lung cancer; Dosage 100 (mg/ml)): 25.1 g
- Body weight of the animals, beginning, First time (Lewis lung cancer; Dosage 100, ip × 10qd): 20.3 g
- Inhibition rate, First time (Lewis lung cancer; Dosage 100, ip × 10qd): 33.33%
- Weight of the tumor X ± SD, First time (Lewis lung cancer; Dosage 100, ip × 10qd): 1.62 ± 0.12 g
- Body weight of the animals, beginning, Second time (Lewis lung cancer; Dosage 100, ip × 10qd): 18.9 g
- Inhibition rate, Second time (Lewis lung cancer; Dosage 100, ip × 10qd): 34.47%
- Weight of the tumor X ± SD, Second time (Lewis lung cancer; Dosage 100, ip × 10qd): 1.92 ± 0.26 g
- Inhibition rate (%) Lewis cancer (Lewis lung cancer): 34.47%
- IC50 (NIH3T3): 90 µM
- IC50 (Hela): 120 µM
- IC50 (BGC-823): 110 µM
- LD50 at 2 weeks (in vivo): 247 mg/kg
- IC50 (HepG2): 90 µM
- IC50 (PLA-801): 160 µM
- IC50 (Lovo): 100 µM
- Death rate (Kunming mice; [1]): 50
- Death rate (Kunming mice; [2]): 80
- Death rate (Kunming mice; female mice, 240 mg/kg): 60
- Death rate (Kunming mice; female mice, 300 mg/kg): 80
- Death rate (Kunming mice; male mice, 240 mg/kg): 40
- Death rate (Kunming mice; male mice, 300 mg/kg): 80
- LD50 (Kunming mice; mouse, in vivo, ip): 214 to 286 mg/kg
- Body weight of the animals, beginning, First time (S180 sarcoma; Dosage 50 (mg/ml)): 19.5 g
- Body weight of the animals, end, First time (S180 sarcoma; Dosage 50 (mg/ml)): 24.7 g
- Inhibition rate, First time (S180 sarcoma; Dosage 50 (mg/ml)): 19.10%
- Weight of the tumor X ± SD, First time (S180 sarcoma; Dosage 50 (mg/ml)): 2.16 ± 0.38 g
- Body weight of the animals, beginning, Second time (S180 sarcoma; Dosage 50 (mg/ml)): 18.4 g
- Body weight of the animals, end, Second time (S180 sarcoma; Dosage 50 (mg/ml)): 25.6 g
- Inhibition rate, Second time (S180 sarcoma; Dosage 50 (mg/ml)): 20.74%
- Weight of the tumor X ± SD, Second time (S180 sarcoma; Dosage 50, ip × 10qd): 2.14 ± 0.23 g
- Body weight of the animals, beginning, First time (S180 sarcoma; Dosage 100 (mg/ml)): 19.2 g
- Body weight of the animals, end, First time (S180 sarcoma; Dosage 100 (mg/ml)): 24.3 g
- Inhibition rate, First time (S180 sarcoma; Dosage 100 (mg/ml)): 28.09%
- Weight of the tumor X ± SD, First time (S180 sarcoma; Dosage 100 (mg/ml)): 1.92 ± 0.25 g
- Body weight of the animals, beginning, Second time (S180 sarcoma; Dosage 100 (mg/ml)): 18.9 g
- Body weight of the animals, end, Second time (S180 sarcoma; Dosage 100 (mg/ml)): 25.1 g
- Inhibition rate, Second time (S180 sarcoma; Dosage 100 (mg/ml)): 25.15%
- Weight of the tumor X ± SD, Second time (S180 sarcoma; Dosage 100, ip × 10qd): 2.02 ± 0.36 g
- Inhibition rate (%) S180 sarcomata (S180 sarcoma): 28.09%
- ΔTm (CT-DNA; [3]): −0.3 °C
- ΔTm (CT-DNA; CT-DNA thermal denaturation): −0.3 °C
- IC50 (Bel-7402): 110 µM

SMILES: c1ccc(Cn2c3ccccc3c3ccncc32)cc1 [Compound 84, 9-Benzyl-β-carboline]
- Body weight of the animals, end, First time (Lewis lung cancer; Dosage 50 (mg/ml)): 24.1 g
- Body weight of the animals, end, Second time (Lewis lung cancer; Dosage 50 (mg/ml)): 25.2 g
- Body weight of the animals, beginning, First time (Lewis lung cancer; Dosage 50, ip × 10qd): 19.0 g
- Inhibition rate, First time (Lewis lung cancer; Dosage 50, ip × 10qd): 27.09%
- Weight of the tumor X ± SD, First time (Lewis lung cancer; Dosage 50, ip × 10qd): 1.83 ± 0.11 g
- Body weight of the animals, beginning, Second time (Lewis lung cancer; Dosage 50, ip × 10qd): 19.7 g
- Inhibition rate, Second time (Lewis lung cancer; Dosage 50, ip × 10qd): 30.93%
- Weight of the tumor X ± SD, Second time (Lewis lung cancer; Dosage 50, ip × 10qd): 1.63 ± 0.16 g
- Body weight of the animals, end, First time (Lewis lung cancer; Dosage 100 (mg/ml)): 24.2 g
- Body weight of the animals, end, Second time (Lewis lung cancer; Dosage 100 (mg/ml)): 24.7 g
- Body weight of the animals, beginning, First time (Lewis lung cancer; Dosage 100, ip × 10qd): 18.5 g
- Inhibition rate, First time (Lewis lung cancer; Dosage 100, ip × 10qd): 35.06%
- Weight of the tumor X ± SD, First time (Lewis lung cancer; Dosage 100, ip × 10qd): 1.63 ± 0.11 g
- Body weight of the animals, beginning, Second time (Lewis lung cancer; Dosage 100, ip × 10qd): 19.4 g
- Inhibition rate, Second time (Lewis lung cancer; Dosage 100, ip × 10qd): 37.29%
- Weight of the tumor X ± SD, Second time (Lewis lung cancer; Dosage 100, ip × 10qd): 1.48 ± 0.15 g
- Inhibition rate (%) Lewis cancer (Lewis lung cancer): 37.29%
- IC50 (NIH3T3): 110 µM
- IC50 (Hela): 50 µM
- IC50 (BGC-823): 70 µM
- MTD at 2 weeks (in vivo): 240 mg/kg
- IC50 (HepG2): 110 µM
- IC50 (PLA-801): 120 µM
- IC50 (Lovo): 120 µM
- Death rate (Kunming mice; [1]): 0
- Death rate (Kunming mice; [2]): 30
- Sex (Kunming mice; both, Kunming, mouse, in vivo, ip, 2 weeks): 240
- Death rate (Kunming mice; female mice, 240 mg/kg): 0
- Death rate (Kunming mice; female mice, 300 mg/kg): 40
- Death rate (Kunming mice; male mice, 240 mg/kg): 0
- Death rate (Kunming mice; male mice, 300 mg/kg): 20
- Body weight of the animals, beginning, First time (S180 sarcoma; Dosage 50 (mg/ml)): 19.6 g
- Body weight of the animals, end, First time (S180 sarcoma; Dosage 50 (mg/ml)): 26.8 g
- Inhibition rate, First time (S180 sarcoma; Dosage 50 (mg/ml)): 29.47%
- Weight of the tumor X ± SD, First time (S180 sarcoma; Dosage 50 (mg/ml)): 2.01 ± 0.24 g
- Body weight of the animals, beginning, Second time (S180 sarcoma; Dosage 50 (mg/ml)): 20.4 g
- Body weight of the animals, end, Second time (S180 sarcoma; Dosage 50 (mg/ml)): 25.4 g
- Inhibition rate, Second time (S180 sarcoma; Dosage 50 (mg/ml)): 31.23%
- Weight of the tumor X ± SD, Second time (S180 sarcoma; Dosage 50, ip × 10qd): 1.96 ± 0.16 g
- Body weight of the animals, beginning, First time (S180 sarcoma; Dosage 100 (mg/ml)): 19.7 g
- Body weight of the animals, end, First time (S180 sarcoma; Dosage 100 (mg/ml)): 26.4 g
- Inhibition rate, First time (S180 sarcoma; Dosage 100 (mg/ml)): 37.19%
- Weight of the tumor X ± SD, First time (S180 sarcoma; Dosage 100 (mg/ml)): 1.79 ± 0.27 g
- Body weight of the animals, beginning, Second time (S180 sarcoma; Dosage 100 (mg/ml)): 20.2 g
- Body weight of the animals, end, Second time (S180 sarcoma; Dosage 100 (mg/ml)): 25.0 g
- Inhibition rate, Second time (S180 sarcoma; Dosage 100 (mg/ml)): 37.19%
- Weight of the tumor X ± SD, Second time (S180 sarcoma; Dosage 100, ip × 10qd): 1.79 ± 0.16 g
- Inhibition rate (%) S180 sarcomata (S180 sarcoma): 37.19%
- ΔTm (CT-DNA; [3]): 1.5 °C
- ΔTm (CT-DNA; CT-DNA thermal denaturation): 1.5 °C
- IC50 (Bel-7402): 80 µM
